EC50 data for 24 compounds are collected here from US20250154152A1, “INHIBITORS OF NAEGLERIA FOWLERI” (Wisconsin Alumni Research Foundation, priority 2023, published 2025).

This assay has as its system N. fowleri strain Nf69 (ATCC 30215) trophozoites. The assay is described as follows: Determination of EC50 values against Naegleria fowleri (growth inhibition, CellTiter Glo, 48 h). It counts as cell-based. Particulars: ATCC30215, N. fowleri Nf69 trophozoites, 48 h culture, 37° C., CellTiter Glo luminescence, read-out: EC50 uM against N. fowleri. The protocol:
N. fowleri strain Nf69 (ATCC 30215) trophozoites were cultured axenically. Amoeba were seeded at […] in 100 μL of the indicated medium in white TC-treated 96-well plates (Thermo Scientific Nunc Microwell 136101). Cells were seeded into Nelson's Complete Media (NCM, 0.17% liver infusion broth (BD Difco, Franklin Lakes, NJ), 0.17% glucose, 0.012% sodium chloride, 0.0136% potassium phosphate monobasic, 0.0142% sodium phosphate dibasic, 0.0004% calcium chloride, 0.0002% magnesium sulfate, 10% heat-inactivated fetal bovine serum (FBS), 1% penicillin-streptomycin) at 37° C. in 96-well tissue culture plates. Vehicle or compound at concentrations initially ranging from 20 to 0.375 μM were added to cells, followed by culture for 48 h (37° C., 5% CO2). Plates were equilibrated to rt for 15 min and CellTiter Glo reagent was added followed by orbital shaking for 2 min. After an additional incubation (rt, 10 min), luminescence was scored on a BioTek Synergy H1 microplate reader. Luminescence values were used to calculate percent cell growth inhibition (based on controls) for each concentration of compound tested. Averages of triplicates were calculated and fit to dose-response curves for the determination of EC50 values, using Prism 9.0 (GraphPad Software, San Diego, CA). […] Other controls included media alone, cells and media, and vehicle and media. For very potent compounds, concentration of reagent in the dose-response assays were reduced to provide an appropriate range for EC50 value resolution.
Compounds of the present technology were tested for growth inhibition of N. fowleri per General Procedure 13, above.

By EC50 is commonly meant the concentration giving half of the maximal effect. Regarding `O=c1c2cc(Cl)c(Cl)cc2nc2n1CC[C@@H]1[C@@H]2CCCN1Cc1ccc(Cl)cc1` (racemic) [Compound 7t, (±)-(4aR,13bS)-10,11-dichloro-4-(4-chlorobenzyl)-1,2,3,4,4a,5,6,13b-octahydro-8H-[1,6]naphthyridino[5,6-b]quinazolin-8-one], the concentration giving a half-maximal response (EC50) was above 10 µM.

With `O=c1c2cc(Cl)c(Cl)cc2nc2n1CC[C@@H]1[C@@H]2CCCN1Cc1ccc(C(F)(F)F)cc1` (racemic) [Compound 7u, (±)-(4aR,13bS)-10,11-dichloro-4-(4-(trifluoromethyl)benzyl)-1,2,3,4,4a,5,6,13b-octahydro-8H-[1,6]naphthyridino[5,6-b]quinazolin-8-one], the EC50 was above 10 µM.

As to `O=c1c2cc(Cl)c(Cl)cc2nc2n1CC[C@@H]1[C@@H]2CCCN1Cc1ccc(Cl)cc1Cl` (racemic) [Compound 7v, (±)-(4aR,13bS)-10,11-dichloro-4-(2,4-dichlorobenzyl)-1,2,3,4,4a,5,6,13b-octahydro-8H-[1,6]naphthyridino[5,6-b]quinazolin-8-one], the EC50 was above 10 µM.

`CN1CCC[C@H]2c3nc4ccccc4c(=O)n3CC[C@H]21` (racemic) [cis-5a, (±)-(4aR,13bR)-4-methyl-1,2,3,4,4a,5,6,13b-octahydro-8H-[1,6]naphthyridino[5,6-b]quinazolin-8-one]: the half-maximal effective concentration (EC50) was above 10 µM.

Turning to `Cc1cccc2nc3n(c(=O)c12)CC[C@@H]1[C@H]3CCCN1C` (racemic) [cis-5b, (±)-(4aR,13bR)-4,9-dimethyl-1,2,3,4,4a,5,6,13b-octahydro-8H-[1,6]naphthyridino[5,6-b]quinazolin-8-one], the concentration giving a half-maximal response (EC50) was above 10 µM.

As for `CN1CCC[C@H]2c3nc4cccc(Cl)c4c(=O)n3CC[C@H]21` (racemic) [cis-5c, (±)-(4aR,13bR)-9-chloro-4-methyl-1,2,3,4,4a,5,6,13b-octahydro-8H-[1,6]naphthyridino[5,6-b]quinazolin-8-one], the half-maximal effective concentration (EC50) was above 10 µM.

As for `CN1CC[C@H]2c3nc4ccccc4c(=O)n3CC[C@H]21` (racemic) [cis-5cc, (±)-(3aR,12bR)-3-methyl-2,3,3a,4,5,12b-hexahydropyrrolo[3′,2′:3,4]pyrido[2,1-b]quinazolin-7(1H)-one], the EC50 is above 10 µM.

With `CN1CCC[C@H]2c3nc4ccc(Cl)cc4c(=O)n3CC[C@H]21` (racemic) [cis-5d, (±)-(4aR,13bR)-10-chloro-4-methyl-1,2,3,4,4a,5,6,13b-octahydro-8H-[1,6]naphthyridino[5,6-b]quinazolin-8-one], the concentration for a half-maximal effect (EC50) was in the range of 1 to 10 µM.

For the compound `COc1cccc2c(=O)n3c(nc12)[C@@H]1CCN(C)[C@@H]1CC3` (racemic) [cis-5dd, (±)-(3aR,12bR)-11-methoxy-3-methyl-2,3,3a,4,5,12b-hexahydropyrrolo[3′,2′:3,4]pyrido[2,1-b]quinazolin-7(1H)-one], the concentration giving a half-maximal response (EC50) is above 10 µM.

Take `CN1CCC[C@H]2c3nc4ccc(Br)cc4c(=O)n3CC[C@H]21` (racemic) [cis-5e, (±)-(4aR,13bR)-10-bromo-4-methyl-1,2,3,4,4a,5,6,13b-octahydro-8H-[1,6]naphthyridino[5,6-b]quinazolin-8-one]: the concentration for a half-maximal effect (EC50) lay within 0.1 to 1 µM.

Regarding `CN1CC[C@H]2c3nc4cc(F)c(F)cc4c(=O)n3CC[C@H]21` (racemic) [cis-5ee, (±)-(3aR,12bR)-9,10-difluoro-3-methyl-2,3,3a,4,5,12b-hexahydropyrrolo[3′,2′:3,4]pyrido[2,1-b]quinazolin-7(1H)-one], the half-maximal effective concentration (EC50) was above 10 µM.

`CN1CCC[C@H]2c3nc4ccc(F)cc4c(=O)n3CC[C@H]21` (racemic) [cis-5f, (±)-(4aR,13bR)-10-fluoro-4-methyl-1,2,3,4,4a,5,6,13b-octahydro-8H-[1,6]naphthyridino[5,6-b]quinazolin-8-one]: the EC50 is above 10 µM.

Turning to `O=c1c2ccccc2nc2n1CC[C@@H]1[C@H]2CCN1Cc1ccccc1` (racemic) [cis-5ff, (±)-(3aR,12bR)-3-benzyl-2,3,3a,4,5,12b-hexahydropyrrolo[3′,2′:3,4]pyrido[2,1-b]quinazolin-7(1H)-one], the EC50 is above 10 µM.

In the case of `COc1ccc2nc3n(c(=O)c2c1)CC[C@@H]1[C@H]3CCCN1C` (racemic) [cis-5g, (±)-(4aR,13bR)-10-methoxy-4-methyl-1,2,3,4,4a,5,6,13b-octahydro-8H-[1,6]naphthyridino[5,6-b]quinazolin-8-one], the EC50 was above 10 µM.

For `COc1cc2nc3n(c(=O)c2cc1Cl)CC[C@@H]1[C@H]3CCCN1C` (racemic) [cis-5gg, (±)-(4aR,13bR)-10-chloro-11-methoxy-4-methyl-1,2,3,4,4a,5,6,13b-octahydro-8H-[1,6]naphthyridino[5,6-b]quinazolin-8-one], the concentration for a half-maximal effect (EC50) was 0.1 to 1 µM.

Regarding `Cc1ccc2nc3n(c(=O)c2c1)CC[C@@H]1[C@H]3CCCN1C` (racemic) [cis-5h, (±)-(4aR,13bR)-4,10-dimethyl-1,2,3,4,4a,5,6,13b-octahydro-8H-[1,6]naphthyridino[5,6-b]quinazolin-8-one], the 50% effective concentration (EC50) lay within 1 to 10 µM.

Turning to `CN1CC[C@H]2c3nc4ccc(Cl)cc4c(=O)n3CC[C@H]21` (racemic) [cis-5hh, (±)-(3aR,12bR)-9-chloro-3-methyl-2,3,3a,4,5,12b-hexahydropyrrolo[3′,2′:3,4]pyrido[2,1-b]quinazolin-7(1H)-one], the EC50 was above 10 µM.

With `CN1CCC[C@H]2c3nc4ccc(C#N)cc4c(=O)n3CC[C@H]21` (racemic) [cis-5i, (±)-(4aR,13bR)-4-methyl-8-oxo-2,3,4,4a,5,6,8,13b-octahydro-1H-[1,6]naphthyridino[5,6-b]quinazoline-10-carbonitrile], the EC50 was in the range of 1 to 10 µM.

Turning to `CN1CCC[C@H]2c3nc4ccc(C(F)(F)F)cc4c(=O)n3CC[C@H]21` (racemic) [cis-5j, (±)-(4aR,13bR)-4-methyl-10-(trifluoromethyl)-1,2,3,4,4a,5,6,13b-octahydro-8H-[1,6]naphthyridino[5,6-b]quinazolin-8-one], the concentration giving a half-maximal response (EC50) is 0.1 to 1 µM.

Regarding `CN1CCC[C@H]2c3nc4cc(Cl)ccc4c(=O)n3CC[C@H]21` (racemic) [cis-5k, (±)-(4aR,13bR)-11-chloro-4-methyl-1,2,3,4,4a,5,6,13b-octahydro-8H-[1,6]naphthyridino[5,6-b]quinazolin-8-one], the concentration giving a half-maximal response (EC50) is above 10 µM.

Regarding `CN1CCC[C@H]2c3nc4cc(Br)ccc4c(=O)n3CC[C@H]21` (racemic) [cis-5l, (±)-(4aR,13bR)-11-bromo-4-methyl-1,2,3,4,4a,5,6,13b-octahydro-8H-[1,6]naphthyridino[5,6-b]quinazolin-8-one], the EC50 is 1 to 10 µM.

On to `CN1CCC[C@H]2c3nc4cc(F)ccc4c(=O)n3CC[C@H]21` (racemic) [cis-5m, (±)-(4aR,13bR)-11-fluoro-4-methyl-1,2,3,4,4a,5,6,13b-octahydro-8H-[1,6]naphthyridino[5,6-b]quinazolin-8-one], for which the EC50 was above 10 µM.

Turning to `CN1CCC[C@H]2c3nc4cc(C(F)(F)F)ccc4c(=O)n3CC[C@H]21` (racemic) [cis-5n, (±)-(4aR,13bR)-4-methyl-11-(trifluoromethyl)-1,2,3,4,4a,5,6,13b-octahydro-8H-[1,6]naphthyridino[5,6-b]quinazolin-8-one], the half-maximal effective concentration (EC50) was 1 to 10 µM.

In the case of `CN1CCC[C@H]2c3nc4cnccc4c(=O)n3CC[C@H]21` (racemic) [cis-5p, (±)-(4aR,13bR)-4-methyl-1,2,3,4,4a,5,6,13b-octahydro-8H-pyrido[3′,4′:4,5]pyrimido[2,1-f][1,6]naphthyridin-8-one], the EC50 was above 10 µM.
